Reference: US20040209897A1 (Pharmacia Corporation, priority 2002, published 2004)
pIC50: −log10 of the molar value. Structures can show the parent of a compound that is named as a salt.

Assays:
SCW-induced arthritis = assay: Streptococcus cell wall (SCW)-induced arthritis, paw volume / paw swelling; assay type: in vivo; settings: rats, FIG. 4, A at 20, 60, 200 mpk/day, B at 60, 120, 240 mpk/day
[1] = system: streptococcal cell wall (SCW)-induced arthritis; assay: Chronic streptococcal cell wall (SCW)-induced arthritis in Lewis rats, paw volume; assay type: in vivo; settings: female Lewis rats, daily dosing from day 10, paw volume measured 11 days after start of administration, A at 200, 60, 20 mpk/day, B at 240, 120, 60 mpk/day, FIG. 3
From the text: The use of Lewis rats with chronic streptococcal cell wall (SCW)-induced arthritis as models for testing potentially therapeutic compounds has been described by Richards, P. J., et al., Rhermatology (Oxford), 40(9):978-987 (2001), and Melay, L. M. et al, Bioorg. Med. Chem., 9(2):537-554 (2001), among others. In the present test, female Lewis rats were divided into eight groups. One group served as the “normal” control and received no arthritis inducement. Chronic streptococcal cell wall (SCW)-induced arthritis was induced in the remaining seven groups. One of the severn groups in which arthritis was induced served as a “vehicle” control and received dosage only of vehicle at the same intervals as those rats receiving the test compounds. Three additional groups of rats received the vehicle plus 2-{2-[(E)-2-phenylethenyl]pyridin-4-yl}-1,5,6,7-tetrahydro-4H-pyrrolo[3,2-c]pyridin-4-one (Compound “A”) in daily dosages. All rats were started on the test at day 0. […]
To measure the effectiveness of the compounds for the treatment of SCW-induced arthritis, rat paw volume was measured at eleven (11) days from the initiation of administration of the test compounds. […]

MK-2 = settings: cited from earlier work
[2] = system: collagen-induced arthritis; settings: mouse; cited from earlier work
adjuvant arthritis = settings: rat; cited from earlier work
endotoxin-induced shock = settings: murine model of endotoxin-induced shock; cited from earlier work
granulomas = settings: laboratory rats; cited from earlier work
[3] = target: Recombinant MAPKAPK2 (MK-2) (Homo sapiens, UniProt P49137); assay: Determination of MK-2 IC50 (HSP-peptide phosphorylation, anion exchange resin capture assay); assay type: biochemical; settings: for pIC50: MAPKAP2 Avg. IC50
Recombinant MAPKAPK2 (MK-2), sequence (P49137 whole entry, species assumed): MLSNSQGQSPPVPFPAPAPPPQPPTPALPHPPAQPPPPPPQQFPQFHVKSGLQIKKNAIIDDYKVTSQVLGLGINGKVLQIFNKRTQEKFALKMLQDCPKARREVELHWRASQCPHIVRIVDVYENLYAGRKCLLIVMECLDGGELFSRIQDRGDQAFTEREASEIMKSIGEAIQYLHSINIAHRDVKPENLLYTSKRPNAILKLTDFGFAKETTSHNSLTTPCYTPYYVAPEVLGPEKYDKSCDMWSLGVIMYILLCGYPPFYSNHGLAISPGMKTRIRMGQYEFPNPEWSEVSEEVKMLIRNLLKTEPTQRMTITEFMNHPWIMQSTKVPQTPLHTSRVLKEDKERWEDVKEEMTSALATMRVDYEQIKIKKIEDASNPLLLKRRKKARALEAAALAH
Method: The phosphorylation of HSP-peptide ([sequence]) by MAPKAPK2 was measured using an anion exchange resin capture assay method. […] The reaction was terminated and [γ^33P]ATP was removed from solution by the addition of 150 μl of AG 1×8 ion exchange resin in 900 mM sodium formate pH 3.0. A 50 μl aliquot of head volume was removed from the quenched reaction mixture and added to a 96-well plate, 150 μl of Microscint-40 (Packard) was added and the amount of phosphorylated-peptide was determined.
Compounds are evaluated as potential inhibitors of the MK2 kinase by measuring their effects on MK2 phosphorylation of the peptide substrate. Compounds may be screened initially at two concentrations prior to determination of IC50 values. Screening results are expressed as percent inhibition at the concentrations of compound tested. For IC50 value determinations, compounds are tested at six concentrations in ten-fold serial dilutions with each concentration tested in triplicate. Results are expressed as IC50 values in micromolar. The assay is performed at a final concentration of 2% DMSO.

For `O=C1NCCc2[nH]c(-c3ccnc(/C=C/c4ccccc4)c3)cc21` [Compound A, 2-{2-[(E)-2-phenylethenyl]pyridin-4-yl}-1,5,6,7-tetrahydro-4H-pyrrolo[3,2-c]pyridin-4-one], the “percent inhibition in paw swelling as a function of the dosage rate” value (SCW-induced arthritis) was “typical dose-response behavior” and the “average paw volume (increase versus vehicle controls)” value [1] was “significantly lower increases in paw volume”.
For `C[S+]([O-])c1ccc(-c2nc(-c3ccncc3)c(-c3ccc(F)cc3)[nH]2)cc1` (centres unmarked) [SB203580], the “inhibition of activation of MK-2” value (MK-2) is listed as “inhibit activation”, the “development of collagen-induced arthritis” value [2] is listed as “inhibit the development” and the “development of adjuvant arthritis” value (adjuvant arthritis) is listed as “inhibit the development”. For the same compound, the mortality (endotoxin-induced shock) was “reduce mortality”.
With `O=C(O)C(F)(F)F.O=C1NCCc2[nH]c(-c3ccnc(-c4ccccc4F)c3)cc21` [B, 2-[2-(2-fluorophenyl)pyridin-4-yl]-1,5,6,7-tetrahydro-4H-pyrrolo[3,2-c]pyridin-4-one trifluoroacetate] the “percent inhibition in paw swelling as a function of the dosage rate” value (SCW-induced arthritis) was “typical dose-response behavior” and the “average paw volume (increase versus vehicle controls)” value [1] was “significantly lower increases in paw volume”.
In the case of `Nc1nccc(-c2c(-c3ccc(F)cc3)ncn2C2CCNCC2)n1` [SB 220025], the “vascular density of granulomas” value (granulomas) is listed as “significant dose-dependent decrease”.
Compound `C=CC(=O)NCc1cccc(-c2cc(-c3cc4c([nH]3)CCNC4=O)ccn2)c1` [Example 351, hydrochloride] has a pIC50 [3] of 7.16.
For `Nc1cccc(-c2cc(-c3cc4c([nH]3)CCNC4=O)ccn2)c1` [Example 431, trifluoroacetate], the pIC50 [3] was 7.00.
With `C=CC(=O)Nc1cccc(-c2cc(-c3cc4c([nH]3)CCNC4=O)ccn2)c1` [N-[3-[4-(4-oxo-4,5,6,7-tetrahydro-1H-pyrrolo[3,2-c]pyridin-2-yl)pyridin-2-yl]phenyl}acrylamide] the “kind of MK-2 inhibition (irreversible)” value [3] was “irreversible inhibitor”.
`O=C(NC1CCCCC1)c1ccc(-c2cc(-c3cc4c([nH]3)CCNC4=O)ccn2)c(F)c1` [Example 391, trifluoroacetate] gave a pIC50 [3] of 7.08.
Compound `C[C@@H]1CN(c2ccccc2/C=C/c2cc(-c3cc4c([nH]3)CCNC4=O)ccn2)C[C@H](C)O1` [Example 766, 2-[2-((E)-2-{2-[(2R,6S)-2,6-dimethylmorpholin-4-yl]phenyl}vinyl)pyridin-4-yl]-1,5,6,7-tetrahydro-4H-pyrrolo[3,2-c]pyridin-4-one trifluoroacetate] has a pIC50 [3] of 5.12.
